This is an account of results in US20110217262A1, “Treatment of Ocular Surface Disorders by Increasing Conjunctival Vascular Permeability” (priority 2010, published 2011).

The subject of one assay is rabbit eyes. The following applies: 1 day post-injection.
The subject of assay [1] is conjunctival blood vessels of rabbit eyes. Briefly: Evans blue dye assay of conjunctival vascular permeability. In kind it is in vivo, New Zealand White rabbits. Here is the method: Method 1: Evans blue dye assay. […] Animals were anesthetized with 2-5% isofluorane gas administered via mask. The eyes were sterilized with 5% iodine (povidone iodine (HUMCO, Texarkana, Tex., USA) diluted to 5% in BSS (Alcon, Fort Worth, Tex., USA)) and 2-3 drops of 0.5% ophthalmic proparacaine (Alcon, Fort Worth, Tex., USA) was administered as a topical anesthetic. Right eyes (OD) received subconjunctival injections of 50 microliters of C-NOD in 100% DMSO. Left eyes (OS) received subconjunctival injections of 50 microliters of 100% DMSO. 40 mg/kg of Evans blue dye (Sigma-Aldrich, St. Louis, Mo., USA) was then injected into an ear vein. Eyes were photographed and tear samples were collected at 1, 2 and 3 days post injection. Tears were collected by insertion of 7 mm discs of Whatman 3M filter paper (Whatman, Inc., Piscataway, N.J., USA) under the lower eyelid for 2 minutes. The filter paper discs were stored in 200 microliters of a phosphate buffered saline solution […] at 5-10° C. Absorption at 620 nm was used to quantify Evans blue dye in tears.
An initial test of the ability of a nitric oxide donor B-NOD (Bing, R. J., Biochem. Biophys. Res. Comm. (2000) 275, 350) to increase conjunctival vascular permeability was performed. Fifty microliters of 100 mg/ml B-NOD in DMSO was injected OD, while DMSO vehicle was injected OS. Some eyes received no injection. Vascular permeability was assessed using the Evans blue dye assay. […] The difference between B-NOD and C-NOD may be due to the shorter half-life predicted for B-NOD.

A further assay concerns rabbit eyes (tears). As to the kind of experiment: Total protein and serum albumin assay of tears. It is filed as in vivo, New Zealand White rabbits. How it is done:
Prior to subconjunctival injection, tear samples were collected from the eyes of the rabbits. Tears were collected by simultaneous insertion of two 7 mm discs of Whatman 3M filter paper (Whatman, Inc., Piscataway, N.J., USA) under the lower eyelid for 2 minutes. The filter paper discs were stored in 200 microliters of a phosphate buffered saline solution containing 0.05% Tween and 0.02% sodium azide at 5-10° C. Animals were anesthetized with 2-5% isofluorane gas administered via mask. The eyes were sterilized with 5% iodine (povidone iodine (HUMCO, Texarkana, Tex., USA) diluted to 5% in BSS (Alcon, Fort Worth, Tex., USA)) and 2-3 drops of 0.5% ophthalmic proparacaine (Alcon, Fort Worth, Texan, USA) was administered as a topical anesthetic. Right eyes (OD) received subconjunctival injections of 50 microliters of C-NOD in 100% DMSO. Left eyes (OS) received subconjunctival injections of 50 microliters of 100% DMSO. Tear samples were collected at 1 hour, then every day for up to 5 days.
Protein content of tears was assessed by two methods. First, total protein was measured using a Bio-Rad Protein Assay Kit (Bio-Rad Laboratories, Hercules, Calif., USA). Second, rabbit serum albumin was measured using an Assaypro Rabbit Albumin ELISA kit (Assaypro LLC, St. Charles, Mo., USA). Both kits were used according to the manufacturer's instructions. […]

The test system of assay [2] is epithelial corneal lesions in diabetic patients. The following applies: prospective, randomized, masked clinical trial; cited from earlier work.

For the molecule `NCCc1c[nH]c2ccc(O)cc12` [Serotonin], in the assay with rabbit eyes, the Chemosis result is “Trace”, the Injection entry was “None” and the Mucous discharge entry was “None”.

Consider `CCOC(=O)Oc1ccccc1C(=O)Oc1cccc(CO[N+](=O)[O-])c1` [C-NOD], for which the “presence of subconjunctival dark Evans blue dye (photographs)” value in assay [1] (66 mg/ml subconjunctival, 24, 48 and 72 hours post injection, versus vehicle injected eyes) is “evident”. Also, in assay [1] (absorption at 620 nm, in most cases, especially at 48 hours), the “Evans blue dye in tears versus DMSO vehicle injected eyes” value was “more Evans blue dye present in the tears”. Further, the “total protein content of tears” value in the assay with rabbit eyes (tears) (10 or 20 mg/cc, 1 day post injection, relative to uninjected eyes, N=4) was “significantly increased protein content of tears”. Besides, the “proportion of serum albumin in tears (albumin to total protein)” value in the assay with rabbit eyes (tears) (each concentration, relative to vehicle injection, 1 hour and 5 days post-injection) is listed as “increased”.

In the case of `O=C(Oc1cccc(CO[N+](=O)[O-])c1)c1ccccc1O` [B-NOD], the “Evans blue dye in tears versus uninjected eyes” value in assay [1] (50 microliters of 100 mg/ml in DMSO, by 24 hours) was “This difference disappeared”; in assay [1] (50 microliters of 100 mg/ml in DMSO, six hours post-injection) it was “more Evans blue dye than did uninjected eyes”. Moreover, the “Evans blue dye in tears versus vehicle injected eyes” value in assay [1] (50 microliters of 100 mg/ml in DMSO, throughout the experiment) is on record as “about the same amount of Evans blue dye as did vehicle injected eyes”.

With `NCCc1c[nH]cn1` [Histamine], in the assay on rabbit eyes, the Injection entry is listed as “Trace” and the Mucous discharge entry is given as “Trace”. The “observable clinical response in the eyes” value with rabbit eyes (conditions not optimized) is “observable clinical response”.

For the molecule hyaluronic acid, the epithelial healing time in assay [2] was 7.1 days.

B1: Angiopoietin-2: candidate stimulator of vascular permeability (protein, UniProt O15123 19-496, looked up)
Angiopoietin-2: YNNFRKSMDSIGKKQYQVQHGSCSYTFLLPEMDNCRSSSSPYVSNAVQRDAPLEYDDSVQRLQVLENIMENNTQWLMKLENYIQDNMKKEMVEIQQNAVQNQTAVMIEIGTNLLNQTAEQTRKLTDVEAQVLNQTTRLELQLLEHSLSTNKLEKQILDQTSEINKLQDKNSFLEKKVLAMEDKHIIQLQSIKEEKDQLQVLVSKQNSIIEELEKKIVTATVNNSVLQKQQHDLMETVNNLLTMMSTSNSAKDPTVAKEEQISFRDCAEVFKSGHTTNGIYTLTFPNSTEEIKAYCDMEAGGGGWTIIQRREDGSVDFQRTWKEYKVGFGNPSGEYWLGNEFVSQLTNQQRYVLKIHLKDWEGNEAYSLYEHFYLSSEELNYRIHLKGLTGTAGKISSISQPGNDFSTKDGDNDKCICKCSQMLTGGWWFDACGPSNLNGMYYPQRQNTNKFNGIKWYYWKGSGYSLKATTMMIRPADF
For the molecule B1, in the assay with rabbit eyes, the Chemosis result is on record as “None”, the Injection entry is “None” and the Mucous discharge entry is “None”.
